Entries after “also recorded” stand apart in the source; their conditions may differ. Where no end group is shown, it is not given here.
System: eosinophils
Experiment: Eosinophils in lung parenchyma and BALF after in vivo treatment (flow cytometry)
Design: species or system mouse
Method: Mice and in vivo ILC activation. C57Bl/6J mice were purchased from the Jackson Laboratory. Nmur1-LacZ reporter mice with a LacZ cassette knocked into the Nmur1 locus were rederived from Nmur1^tm1.1(KOMP)Vleg sperm obtained from the trans-NIH Knock-Out Mouse Project (KOMP) Repository. Mice were housed under specific-pathogen-free conditions. For experiments, mice were matched for sex and age, and most mice were 6-10 weeks old. […] The total administered volume was 20 μl for all conditions. Mice were randomly assigned to treatment groups after matching for sex and age. […] Mice were treated intranasally with 10 μg HDM on day 0, 7, 8, and 9, prior to sacrifice on day 10. All experiments were conducted in accordance with animal protocols approved by the Harvard Medical Area Standing Committee on Animals or BWH IACUC.
Flow cytometry. […] Cells were stained on ice with antibodies for surface molecules and the live/dead marker 7AAD and analyzed on a LSRFortessa (BD Biosciences). […]
Lung analysis. […] BALF was centrifuged, and the supernatant was used for analyzing cytokine levels and the cell pellet was resuspended, counted, and used for flow cytometry. […] Where indicated, cells were diluted in 10% Trypan Blue and viable cells counted using a hemocytometer. […]

Substance: Neuromedin U (FRVDEEFQSPFASQSRGYFLFRPRN-NH2; listed as Homo sapiens) [NMU, neuropeptide ligand of Nmur1 (US Biological)]
- eosinophils in BALF (intranasal daily for 3 days (500 ng IL-25, 20 μg NMU)): only a mild increase; also recorded: small increase
- eosinophils in lung parenchyma (intranasal daily for 3 days (500 ng IL-25, 20 μg NMU; FIG. 11: 250 ng IL-33, 10 μg NMU)): did not increase

— patent publication US12161694B2, “Methods and compositions for regulating innate lymphoid cell inflammatory responses” (The Broad Institute, Inc., priority 2017, dated 2024)
